We go through seven compounds from patent publication US9815802B2, “Herbicidally active N-(1-methyltetrazol-5-yl)benzoic acid amides” (BAYER CROPSCIENCE AKTIENGESELLSCHAFT, priority 2014, dated 2017).

Common to all, as to format: in vivo
One experiment relates to Stellaria media. Description: Post-emergence herbicidal action against STEME. To be noted: dosage 5 g/ha. The procedure: (§1) Post-Emergence Herbicidal Action Against Harmful Plants Seeds of monocotyledonous and dicotyledonous weed and crop plants are laid out in sandy loam in wood-fiber pots, covered with soil and cultivated in a greenhouse under good growth conditions. 2 to 3 weeks after sowing, the test plants are treated at the one-leaf stage. The compounds of the invention, formulated in the form of wettable powders (WP) or as emulsion concentrates (EC), are then sprayed onto the green parts of the plants in the form of an aqueous suspension or emulsion at a water application rate equating to 600 to 800 I/ha, with addition of 0.2% wetting agent. After the test plants have been left to stand in the greenhouse under optimal growth conditions for about 3 weeks, the action of the preparations is assessed visually in comparison to untreated controls (herbicidal action in percent (%): 100% activity=the plants have died, 0% activity=like control plants).

Another experiment concerns Setaria viridis. The experiment is described as follows: Post-emergence herbicidal action against SETVI. The procedure:
as §1

In a further experiment the test system is Echinochloa crus galli. Description: Post-emergence herbicidal action against ECHCG. To be noted: dosage 80 g/ha. How it is done:
as §1

In another experiment the test system is Abutilon theophrasti. The experiment is described as follows: Post-emergence herbicidal action against ABUTH. To be noted: dosage 80 g/ha. The procedure:
as §1

Take `CCc1ccc(C(=O)Nc2nnnn2C)c(C)c1SOC`: the “Activity against STEME” value with Stellaria media came to 100%. Moreover, the “Activity against SETVI” value in the experiment on Setaria viridis (dosage 5 g/ha) is reported as 100%.

Consider `COSc1c(C)ccc(C(=O)Nc2nnnn2C)c1[N+](=O)[O-]` [drawing 63], for which the “Activity against SETVI” value in the experiment on Setaria viridis (Table T, dosage 80 g/ha) is reported as 0%. For the same compound, in the experiment with Echinochloa crus galli (Table T), the “Activity against ECHCG” value turned out to be 20%.

Consider `COSc1c(C)ccc(C(=O)Nc2nnnn2C)c1C` [drawing 38], for which the “Activity against SETVI” value in the experiment on Setaria viridis (dosage 80 g/ha) is 100%. In addition, the “Activity against ABUTH” value with Abutilon theophrasti is listed as 100%. The “Activity against ECHCG” value in the experiment with Echinochloa crus galli is 100%.

On to `COSc1c(C(F)(F)F)ccc(C(=O)Nc2nnnn2C)c1C` [reference compound], for which the “Activity against STEME” value in the experiment on Stellaria media came out at 80%. For the same compound, the “Activity against SETVI” value in the experiment with Setaria viridis (dosage 5 g/ha) was determined as 80%.

With `CCc1c(C(=O)Nc2nnnn2C)ccc(C)c1SOC` [drawing 61], the “Activity against SETVI” value in the experiment with Setaria viridis (Table T, dosage 80 g/ha) is listed as 80%. For the same compound, the “Activity against ECHCG” value in the experiment on Echinochloa crus galli (Table T) turned out to be 90%.

For the compound `COSc1c(C)ccc(C(=O)Nc2nnnn2C)c1C` [drawing 39, reference compound], the “Activity against SETVI” value in the experiment on Setaria viridis (dosage 80 g/ha) worked out at 20%. For the same compound, the “Activity against ABUTH” value in the experiment with Abutilon theophrasti is recorded as 80%. Moreover, the “Activity against ECHCG” value in the experiment on Echinochloa crus galli came to 40%.

`COSc1c(S(C)(=O)=O)ccc(C(=O)Nc2nnnn2C)c1C` [drawing 50, reference compound]: in the experiment with Stellaria media, the “Activity against STEME” value is given as 80%. Also, the “Activity against SETVI” value in the experiment on Setaria viridis (dosage 5 g/ha) worked out at 40%.
